Assay results from patent publication US11905306B2 (priority 2021, dated 2024).

What was measured:
USA_WA1/2020 SARS CoV-2 = test: microbe, parasite or virus in culture; type: cell-based; settings: Severe acute respiratory syndrome coronavirus 2, Vero C1008, 72 h, read-out: SARS-2 EC50 (μM) VeroE6
in vitro = settings: African green monkey
SARS-2 [1] = system: SARS-2
Toronto 2 SARS CoV-1 = test: organism not typed; type: cell-based; settings: Vero C1008, 72 h, read-out: SARS-1 EC50 (μM) VeroE6
SARS-2 [2] = test: microbe, parasite or virus in culture; type: cell-based; settings: Severe acute respiratory syndrome coronavirus 2, read-out: SARS-2 VU-EC50 (μM) (A549-hACE2)

| SMILES | EC50 (USA_WA1/2020 SARS CoV-2) | CC50 (in vitro) | SARS-2 VU-VTR @ 20 μM (A549-hACE2) (logs) (SARS-2 [1]) | EC50 (Toronto 2 SARS CoV-1) | EC50 (SARS-2 [2]) |
| --- | --- | --- | --- | --- | --- |
| O=C1CCc2cc(C(=O)Nc3cccc(C#Cc4ccccn4)c3)ccc2N1 [Compound 1, 2-Oxo-N-(3-(pyridin-2-ylethynyl)phenyl)-1,2,3,4-tetrahydroquinoline-6-carboxamide] | 5.81 ± 2.51 µM | > 30000 nM | 1.95 logs | 5.07 ± 2.89 µM | 7.32 µM |
| CN1C(=O)CCc2cc(C(=O)Nc3cccc(C#Cc4ccccn4)c3)ccc21 [Compound 2, 1-Methyl-2-oxo-N-(3-(pyridin-2-ylethynyl)phenyl)-1,2,3,4-tetrahydroquinoline-6-carboxamide] | 2.55 µM | > 30000 nM | 3.32 logs | 1.46 µM | 3.59 µM |
| O=C1CCCc2cc(C(=O)Nc3cccc(C#Cc4ccccn4)c3)ccc2N1 [Compound 4, 2-Oxo-N-(3-(pyridin-2-ylethynyl)phenyl)-2,3,4,5-tetrahydro-1H-benzo[b]azepine-7-carboxamide] | 1.5 µM | 22900 nM | 2.55 logs | 1.39 µM | 1.5 µM |
| CC(=O)Nc1ccc(C(=O)Nc2cccc(C#Cc3ccccn3)c2)cc1 [Compound 5, 4-Acetamido-N-(3-(pyridin-2-ylethynyl)phenyl)benzamide] | 3.89 µM | > 30000 nM | 2.05 logs | 2.14 µM | 3.58 µM |
| O=C(Nc1cccc(C#Cc2ccccn2)c1)c1ccc(NC(=O)C2CC2)cc1 [Compound 8, 4-(Cyclopropanecarboxamido)-N-(3-(pyridin-2-ylethynyl)phenyl)benzamide] | 0.94 µM | > 30000 nM | 1.53 logs | 0.47 µM | 1.07 µM |
| O=C(Nc1cccc(C#Cc2ccccn2)c1)c1ccc(NC(=O)C2CCC2)cc1 [Compound 9, 4-(Cyclobutanecarboxamido)-N-(3-(pyridin-2-ylethynyl)phenyl)benzamide] | 0.26 µM | > 30000 nM | 1.88 logs | 0.21 µM | 0.69 µM |
| O=C(Nc1cccc(C#Cc2ccccn2)c1)c1ccc(N2CCNC2=O)cc1 [Compound 14, 4-(2-Oxoimidazolidin-1-yl)-N-(3-(pyridin-2-ylethynyl)phenyl)benzamide] | 1.06 µM | > 30000 nM | 1.84 logs | 1.05 µM | 2.31 µM |
| CC(C)N1CCN(c2ccc(C(=O)Nc3cccc(C#Cc4ccccn4)c3)cc2)C1=O [Compound 17, 4-(3-Isopropyl-2-oxoimidazolidin-1-yl)-N-(3-(pyridin-2-ylethynyl)phenyl)benzamide] | 0.61 µM | > 30000 nM | 2.12 logs | 2.37 µM | 0.43 µM |
| O=C(Nc1cccc(C#Cc2ccccn2)c1)c1ccc(N2CCCCC2=O)cc1 [Compound 22, 4-(2-Oxopiperidin-1-yl)-N-(3-(pyridin-2-ylethynyl)phenyl)benzamide] | 1.87 µM | > 30000 nM | 2.4 logs | 1.3 µM | 1.05 µM |
| O=C(Nc1ccc(N2CCC2=O)cc1)c1cccc(C#Cc2ccccn2)c1 [Compound 57, N-(4-(2-oxoazetidin-1-yl)phenyl)-3-(pyridin-2-ylethynyl)benzamide] | 4.01 µM | > 30000 nM |  | 1.74 µM |  |
| O=C(Nc1ccc(NC(=O)N2CCC2)cc1)c1cccc(C#Cc2ccccn2)c1 [Compound 60, N-(4-(3-(pyridin-2-ylethynyl)benzamido)phenyl)azetidine-1-carboxamide] | 7.75 µM | > 30000 nM |  | 3.93 µM |  |
| CC1(NC(=O)c2ccc(NC(=O)c3cccc(C#Cc4ccccn4)c3)cc2)CC1 [Compound 61, N-(4-((1-methylcyclopropyl)carbamoyl)phenyl)-3-(pyridin-2-ylethynyl)benzamide] | 0.71 µM | > 30000 nM |  | > 30 µM |  |
| O=C(Nc1ccc(C(=O)NC2CCCC2)cc1)c1cccc(C#Cc2ccccn2)c1 [Compound 62, N-(4-(cyclopentylcarbamoyl)phenyl)-3-(pyridin-2-ylethynyl)benzamide] | 0.48 µM | > 30000 nM |  | > 30 µM |  |
| COC(=O)c1ccc(NC(=O)c2cccc(C#Cc3ccccn3)c2)cc1 [Compound 63, Methyl 4-(3-(pyridin-2-ylethynyl)benzamido)benzoate] | 0.55 µM | > 30000 nM |  | 0.43 µM |  |
| COC(=O)c1cccc(NC(=O)c2cccc(C#Cc3ccccn3)c2)c1 [Compound 64, Methyl 3-(3-(pyridin-2-ylethynyl)benzamido)benzoate] | > 30 µM | 21700 nM |  | 4.19 µM |  |
| CC(C)(C)c1ccc(NC(=O)c2cccc(C#Cc3ccccn3)c2)cc1 [Compound 67, N-(4-(tert-butyl)phenyl)-3-(pyridin-2-ylethynyl)benzamide] | 4.25 µM | > 30000 nM |  | 3.51 µM |  |
| O=C(Nc1ccc(C(O)(C(F)(F)F)C(F)(F)F)cc1)c1cccc(C#Cc2ccccn2)c1 [Compound 68, N-(4-(1,1,1,3,3,3-hexafluoro-2-hydroxypropan-2-yl)phenyl)-3-(pyridin-2-ylethynyl)benzamide] | 27.7 µM | 9720 nM |  | 0.52 µM |  |
| CC(=O)Nc1ccc(NC(=O)c2cccc(C#Cc3ccccn3)c2)cn1 [Compound 71, N-(6-acetamidopyridin-3-yl)-3-(pyridin-2-ylethynyl)benzamide] | 4.13 µM | > 30000 nM |  | 3.98 µM |  |
| COc1cc(C#Cc2ccccn2)cc(C(=O)Nc2ccc(N3CCCCC3=O)cc2)c1 [Compound 72, 3-methoxy-N-(4-(2-oxopiperidin-1-yl)phenyl)-5-(pyridin-2-ylethynyl)benzamide] | 0.51 µM | 26600 nM |  | 0.24 µM |  |
| O=C(Nc1ccc(N2CCCS2(=O)=O)cc1)c1cccc(C#Cc2ccccn2)c1 [Compound 74, N-(4-(1,1-dioxidoisothiazolidin-2-yl)phenyl)-3-(pyridin-2-ylethynyl)benzamide] | > 30 µM | > 30000 nM |  | 0.91 µM |  |
| COc1cc(C#Cc2ccccn2)cc(C(=O)Nc2ccc(N3CCCCS3(=O)=O)cc2)c1 [Compound 75, N-(4-(1,1-dioxido-1,2-thiazinan-2-yl)phenyl)-3-methoxy-5-(pyridin-2-ylethynyl)benzamide] | 0.128 µM | > 30000 nM |  | 0.065 µM |  |
| COc1cc(C#Cc2ccccn2)cc(NC(=O)c2ccc(N3CCCCS3(=O)=O)cc2)c1 [Compound 76] | 0.189 µM | > 30000 nM |  | 0.172 µM |  |
| O=C(Nc1cccc(C#Cc2ccccn2)c1)c1ccc(N2CCCCS2(=O)=O)cc1 [Compound 77] | 0.957 µM | > 30000 nM |  | 0.791 µM |  |
| N#Cc1cc(C#Cc2ccccn2)cc(NC(=O)c2ccc(N3CCCCC3=O)cc2)c1 [Compound 78] | 1.97 µM | > 30000 nM |  | 1.54 µM |  |
| COc1cc(C#Cc2ccccn2)cc(C(=O)Nc2ccc(CC3CC(=O)NC3=O)cc2)c1 (stereo not drawn) [Compound 79] | 8.19 µM | > 30000 nM |  | 4.45 µM |  |
